{"source": "ChEMBL document CHEMBL5653631", "about": "“A Potent and Selective ULK1 Inhibitor Suppresses Autophagy and Sensitizes Cancer Cells to Nutrient Stress” (iScience, 2018)", "key": {"[1]": {"target": "T1, Serine/threonine-protein kinase DCLK2 (Homo sapiens) (UniProt Q8N568)", "T1 sequence (whole entry)": "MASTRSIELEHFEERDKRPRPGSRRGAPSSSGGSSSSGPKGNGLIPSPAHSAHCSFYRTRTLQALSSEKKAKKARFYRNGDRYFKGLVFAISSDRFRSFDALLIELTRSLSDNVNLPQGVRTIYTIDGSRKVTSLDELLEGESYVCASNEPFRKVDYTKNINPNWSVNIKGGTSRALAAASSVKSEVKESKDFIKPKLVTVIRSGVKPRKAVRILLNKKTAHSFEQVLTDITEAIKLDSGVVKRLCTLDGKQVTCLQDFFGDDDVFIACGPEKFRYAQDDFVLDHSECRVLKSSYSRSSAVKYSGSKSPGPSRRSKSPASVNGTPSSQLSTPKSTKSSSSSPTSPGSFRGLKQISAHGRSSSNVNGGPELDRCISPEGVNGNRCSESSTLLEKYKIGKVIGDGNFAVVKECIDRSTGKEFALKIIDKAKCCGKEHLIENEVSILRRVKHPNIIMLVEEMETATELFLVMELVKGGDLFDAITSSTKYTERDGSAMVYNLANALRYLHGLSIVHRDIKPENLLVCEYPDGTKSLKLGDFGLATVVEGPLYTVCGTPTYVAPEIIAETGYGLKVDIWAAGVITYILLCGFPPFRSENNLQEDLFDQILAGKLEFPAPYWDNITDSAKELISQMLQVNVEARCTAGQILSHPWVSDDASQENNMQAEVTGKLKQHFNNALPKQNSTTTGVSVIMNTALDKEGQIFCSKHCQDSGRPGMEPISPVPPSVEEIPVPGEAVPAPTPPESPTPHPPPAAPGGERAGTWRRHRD", "assay": "Inhibition of human recombinant DCAMKL2 at 500 nM in presence of ATP by radiometric assay relative to control"}, "[2]": {"target": "T2, Calcium/calmodulin-dependent protein kinase type IV (Homo sapiens) (UniProt Q16566)", "T2 sequence (whole entry)": "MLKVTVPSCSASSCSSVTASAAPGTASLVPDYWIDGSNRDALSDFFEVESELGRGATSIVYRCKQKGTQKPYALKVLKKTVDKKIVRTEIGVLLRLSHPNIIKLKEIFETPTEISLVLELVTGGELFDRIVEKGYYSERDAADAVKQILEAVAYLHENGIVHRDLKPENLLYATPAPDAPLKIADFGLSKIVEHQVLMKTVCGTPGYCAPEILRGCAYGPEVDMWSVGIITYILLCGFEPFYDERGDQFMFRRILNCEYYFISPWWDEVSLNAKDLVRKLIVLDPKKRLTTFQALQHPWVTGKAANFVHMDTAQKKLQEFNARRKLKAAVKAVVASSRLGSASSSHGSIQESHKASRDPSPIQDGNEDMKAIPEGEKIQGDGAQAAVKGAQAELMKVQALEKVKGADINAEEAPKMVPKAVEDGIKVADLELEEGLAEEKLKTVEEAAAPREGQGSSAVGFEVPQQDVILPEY", "assay": "Inhibition of human recombinant CaMK4 at 500 nM related to control ULK1"}, "[3]": {"species": "Homo sapiens", "assay": "Inhibition of human recombinant KHS1 at 500 nM in presence of ATP by radiometric assay relative to control"}, "[4]": {"target": "T3, Serine/threonine-protein kinase Nek3 (Homo sapiens) (UniProt P51956)", "T3 sequence (whole entry)": "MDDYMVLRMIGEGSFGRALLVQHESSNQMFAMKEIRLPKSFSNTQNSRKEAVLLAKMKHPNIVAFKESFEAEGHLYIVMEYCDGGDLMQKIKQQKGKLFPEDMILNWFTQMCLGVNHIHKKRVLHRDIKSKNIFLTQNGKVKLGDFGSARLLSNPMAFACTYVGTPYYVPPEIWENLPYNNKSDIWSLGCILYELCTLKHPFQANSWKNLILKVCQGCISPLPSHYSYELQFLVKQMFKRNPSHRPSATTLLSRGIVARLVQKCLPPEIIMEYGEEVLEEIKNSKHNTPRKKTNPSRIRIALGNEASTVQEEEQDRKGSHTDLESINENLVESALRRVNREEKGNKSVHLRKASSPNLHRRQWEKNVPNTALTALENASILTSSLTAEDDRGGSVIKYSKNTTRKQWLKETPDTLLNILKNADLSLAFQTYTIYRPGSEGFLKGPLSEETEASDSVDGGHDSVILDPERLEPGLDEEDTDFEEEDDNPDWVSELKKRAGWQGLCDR", "assay": "Inhibition of human recombinant NEK3 at 15 nM in presence of ATP by radiometric assay relative to control"}, "[5]": {"target": "Ribosomal protein S6 kinase alpha-2 (Homo sapiens) (UniProt Q15349)", "assay": "Inhibition of human recombinant RSK3 at 15 nM related to control ULK1"}, "[6]": {"target": "Serine/threonine-protein kinase pim-3 (Homo sapiens) (UniProt Q86V86)", "assay": "Inhibition of human recombinant PIM3 at 40 nM related to control ULK1"}, "[7]": {"target": "Activin receptor type-2A (Homo sapiens) (UniProt P27037)", "assay": "Inhibition of human recombinant ACTR2 at 40 nM in presence of ATP by radiometric assay relative to control"}}, "data": [{"smiles": "CNC(=O)c1ccccc1Oc1nc(Nc2cc(OC)c(OC)c(OC)c2)ncc1Br", "values": [{"measurement": "inhibition", "setting": "[1]", "value": 0, "unit": "%"}, {"measurement": "fold change (FC)", "setting": "[2]", "value": 0}, {"measurement": "inhibition", "setting": "[3]", "value": 11, "unit": "%"}]}, {"smiles": "CC(C)[C@H](NC(=O)c1cc(-c2cnn3cc(-c4ccc(OCCN5CCCCC5)cc4)cnc23)cs1)C(F)(F)F", "values": [{"measurement": "inhibition", "setting": "[4]", "value": 1, "unit": "%"}, {"measurement": "fold change (FC)", "setting": "[5]", "value": 0.03}]}, {"smiles": "O=C(N[C@@H](C1CC1)C(F)(F)F)c1cc(-c2cnn3cc(-c4ccc(F)cc4)cnc23)cs1", "values": [{"measurement": "fold change (FC)", "setting": "[6]", "value": 0}, {"measurement": "inhibition", "setting": "[7]", "value": 1, "unit": "%"}]}]}
